The text below walks through data of US20210393547A1, “USE OF EMODIN IN TREATING RETINAL ISCHEMIA OR A DISEASE, CONDITION, OR DISORDER ASSOCIATED WITH RETINAL ISCHEMIA” (priority 2020, published 2021).

One series has as its system RGC-5 cells. Nature of the series: cells. To be noted: Mus musculus, RGC5, read-out: Cell viability (% of control). In kind it is cell-based. As to the method: RGC-5 cells have been reported to be not transformed rat RGCs, but rather are mouse retinal neuronal precursor cells. OGD was established by incubating RGC-5 cells in Dulbecco's modified Eagle medium (DMEM; Thermo Fisher Scientific Inc.) without glucose at 37° C. under ischemia simulation conditions, namely 1% O2 (measured using a Penguin Incubator; Astec Company, Kukuoka, Japan), 94% N2 and 5% CO2. Various experimental groups (Table 1) were investigated. […]
Mitochondrial nicotinamide adenine dinucleotide phosphate dependent oxidoreductases are able to reduce MTT to produce formazan and thus increased levels of dark purple formazan that are associated with greater cell viability. […] After shaking, the optical density (OD) of the dissolved formazan was measured using an ELISA plate reader (Synergy H1 Multi-Mode Reader BioTek Instruments) at 562 nm. Cell viability was calculated as the change in OD value compared to the untreated control (100%).
The cultured cells were used to identify the effective dose(s) of the tested agent emodin. The effect of emodin (0.25 and 0.5 μM) on the cultured cells was evaluated utilizing MTT cell viability assays and a cellular ischemia simulation model, namely OGD, for 1 day. […]

Series [1] concerns retinal ischemia in Wistar rats. Description: ERG b-wave recording after raised-IOP retinal ischemia/reperfusion. In kind it is in vivo, rat. The note with it: for ERG b-wave ratio (treated eye to untreated fellow eye): mean±S.E.M.; for ERG b-wave amplitude: Wistar rat. As to the method:
Emodin was purchased from Sigma-Aldrich (E7881; 90%; storage at 2-8° C.; from Frangula bark; St. Louis, Mo., United States). Drug administration for different procedures, namely ERG, fluorogold RGC labelling, cresyl violet retinal staining and Western blot assays, were described in Tables 3 to 6. Vehicle or emodin (5 μL) was administered via an intravitreous injection route so that these agents were then able to be directly diffused to the target. Emodin was dissolved in vehicle (DMSO:distilled water=1:3). The defined final cellular concentrations of administered drug were 0.25 or 0.5 μM, which were achieved after 40 times dilution from the stock concentrations, namely 10 or 20 μM, based on an arbitrary definition of the vitreous volume as 200 μL. To test a wider range of dose-response, 4 μM of emodin was thus added in the animal experiments. The Vehicle+IR and Emo+IR groups (pre-ischemic administration of emodin 4, 10 or 20 μM) were subjected to following the experimental procedures; these were initial pre-ischemic intravitreous injection (vehicle or emodin), retinal ischemia induction 1 day later, and sacrifice of the animal on the following day to allow the various post-mortem procedures except ERG. In the post-ischemic treatment group, in order to decrease the number of animals used, the present invention only used a single emodin concentration of 20 μM. Furthermore, intravitreous emodin was given 1 day after initial retinal ischemia induction and animals were sacrificed the following day to allow the performance of various post-mortem procedures as mentioned above.
The IOP procedure used raised the IOP and was designed to cause retinal ischemia in Wistar rats and simulate ischemic retinal disorders. The rats were anesthetized and constrained with a sterotaxic frame. A 30-gauge needle connected to an elevated saline bottle was attached to anterior chamber of the rat's eye. The pressure exerted by the saline inside the bottle was controlled to 120 mmHg. This procedure was conducted for 1 hour. Successful retinal ischemia induction was confirmed by observing that the whitening of the retina took place. Throughout the experiments, the animals were kept on heat mats to maintain their temperature. The sham procedure involved keeping the pressure in saline bottle 0 mmHg.
Animals were given anesthesia prior to the flash ERG measurements. For the Sham or pre-ischemic treatment group (intravitreous injection of emodin or vehicle 1 day before ischemia; Emodin+IR or Vehicle+IR), flash ERG responses were measured before the sham procedure, IR procedures or any drug administration (day 0), and one day after the sham procedure or IR procedure with pre-ischemic intravitreous injection. In the post-ischemic treatment group, ERG recordings were collected pre-ischemia (day 0), and post-ischemia (at timepoints: 1 day after ischemia; 1 day after post-ischemic intravitreous injection of emodin). Dark adaption and pupil dilation using 1% tropicamide and 2.5% phenylephrine were carried out 8 hours before the ERG measurement. The ERG recording machinery was purchased from the Grass-Telefactor Company (AstroNova, QC, Canada) and included a stimulator (PS22), a regulated power supply (RPS107), and an amplifier (P511). A strobe light (0.5 Hz), which acted as the source of stimulus, was placed 2 cm directly in front of the rat's eye. Fifteen consecutive measurements (10 kHz) were retrieved every two seconds. The amplitudes were calculated to obtain an average. To make comparisons between the various groups, the ratios of the b-wave amplitude of one eye (sham procedure or ischemic insult with defined agents) to that of the untreated fellow normal eye were analyzed.

What is called viability is a read-out of living cells in per cent, often relative to untreated cells. `Cc1cc(O)c2c(c1)C(=O)c1cc(O)cc(O)c1C2=O` [emodin, 6-methyl-1,3,8-trihydroxyanthraquinone]: the viability at 0.25 µM in the series with RGC-5 cells turned out to be 43.8 ± 3.75%. Besides, in the series with RGC-5 cells, the viability at 0.5 µM came to 47.5 ± 3.99%. Also, the “ERG b-wave ratio (treated eye to untreated fellow eye)” value in series [1] (Emo4+IR: pre-ischemic intravitreous 4 μM emodin, n=8, Sham normalized to 1, Vehicle+IR 0.04) was found to be 0.08±0.07; in series [1] (Emo10+IR: pre-ischemic intravitreous 10 μM emodin, n=4, P<0.001 vs Vehicle+IR), 0.64±0.28; in series [1] (Emo20+IR: pre-ischemic intravitreous 20 μM emodin, n=4, P<0.001 vs Vehicle+IR) it was 0.99±0.18; in series [1] (IR+Emo20: post-ischemic intravitreous 20 μM emodin, n=9, P<0.001 vs Vehicle+IR) it was 0.24±0.09. Further, the ERG b-wave amplitude was 0.07 mV in series [1] (Emo4+IR: pre-ischemic intravitreous injection of 4 μM emodin followed by IR, Sham 0.87, Vehicle+IR 0.03); 0.58 mV in series [1] (Emo10+IR: pre-ischemic intravitreous injection of 10 μM emodin followed by IR); 0.63 mV in series [1] (Emo20+IR: pre-ischemic intravitreous injection of 20 μM emodin followed by IR); 0.12 mV in series [1] (IR+Emo20: IR followed by post-ischemic intravitreous injection of 20 μM emodin).
